# Measured values reported in article PMC11407620, “Repurposing auranofin and meclofenamic acid as energy-metabolism inhibitors and anti-cancer drugs” (PLOS ONE, 2024).
# Tests used:
# Cervix HeLa cells = experiment: Cell proliferation, 24 h drug exposure; type: cell-based, human
# Method: (§1) All metastatic (breast MDA-MB231, MDA-MB468, cervix HeLa, prostate PC3, colorectal HCT116, COLO205, glioblastoma U373), low-metastatic (breast MCF-7) cancer and non-cancer (fibroblast 3T3, cardiomyocytes H9C2) cell lines (American Type Culture Collection, Rockville, MD, USA) used in this study were cultured in Petri dishes in 20 mL of Dulbecco’s Modified Eagle’s Medium (DMEM, Sigma, MO, USA) supplemented with 10% fetal bovine serum (Biowest, Mexico) and 10,000 U penicillin/streptomycin (Sigma-Aldrich, MO, USA). […] For growth and maintenance, cells were incubated in 5% CO2/95% air at 37°C and kept until 80–90% of confluence was reached. Then, cells were harvested, washed by centrifugation and resuspended in Krebs-Ringer buffer (KR, 125 mM NaCl, 5 mM KCl, 25 mM Hepes, 1 mM MgCl2, 1 mM KH2PO4, 1.4 mM CaCl2, pH 7.4) for further use. For experimentation, cancer cells (3–5 x 10^6 cells) were cultured in DMEM (with 25 mM glucose) for 24 h in the absence of drugs. Afterwards, old-medium was replaced with fresh DMEM medium (with 25 mM glucose) in the absence (control, non-treated cells) or in the presence of logarithmic concentrations of Aur and MA for 24 h more, under the same culture conditions described above. Viability of cultured cells was determined by the trypan blue exclusion assay. The protein concentration was determined by the Lowry method.
# For cell proliferation in the presence of drugs, cancer cells (20 x 10^3 cells/well) were grown in 96-well plates containing DMEM (Sigma-Aldrich) plus 10% bovine fetal serum for 24 h. […] The effect of these drugs on cell proliferation was determined in 96-well plates by the MTT (3-[4,5-dimethyl-thiazol-2-yl]-2,5-diphenyltetrazolium bromide) assay. The viability of cancer cells was > 95% after treatment with drugs.
# 3T3 mouse fibroblasts = experiment: Cell proliferation, 24 h drug exposure (non cancer cells); type: cell-based; conditions: Fibroblast, 3T3 mouse fibroblasts (non cancer), read-out: IC50 for proliferation cell rate
# Method: as §1
# (§2) For cell proliferation in the presence of drugs, cancer cells (20 x 10^3 cells/well) were grown in 96-well plates containing DMEM (Sigma-Aldrich) plus 10% bovine fetal serum for 24 h. Afterwards, Aur or MA (0.01, 0.1, 10 and 100 μM) were added to the cell cultures and incubated for additional 24 h. The effect of these drugs on cell proliferation was determined in 96-well plates by the MTT (3-[4,5-dimethyl-thiazol-2-yl]-2,5-diphenyltetrazolium bromide) assay. The viability of cancer cells was > 95% after treatment with drugs.
# [1] = tested on: H9C2 mouse cardiomyocytes; experiment: as above; type: cell-based; conditions: read-out: IC50 for proliferation cell rate
# Method: as §1, §2
# [2] = tested on: AS-30D hepatoma mitochondria; experiment: Oxygen consumption of isolated mitochondria; type: biochemical, rat; design: Net State 3 oxygen consumption rate: unit not given here; conditions: Hepatoma mitochondria, 5 mM Glutamate/0.1 mM Malate
# Method: AS-30D hepatocarcinoma cells were propagated in the peritoneal cavity of 200–250 g weight female Wistar rats by intra-peritoneal inoculation of 3 mL of a cellular suspension containing approximately 4 × 10^8 cells/mL [36]. After 5–6 days, the rats were sacrificed by cervical dislocation and AS-30D ascites liquid was extracted from peritoneal area with a sterile syringe and collected in 50 mL-plastic tubes. The hepatoma cells were harvested by centrifugation and washed once by centrifugation in KR buffer. For mitochondria isolation from AS-30D hepatoma, cells were permeabilized with digitonin (Sigma Aldrich, CA, USA) at 10–40 μg/mg cellular protein concentration.
# (§3) Respiration of AS-30D, liver and heart mitochondria (1 mg protein/mL) was assayed oxygraphically with a Clark-type O2 electrode in KME (120 mM KCl, 20 mM Mops, 1 mM EGTA) buffer pH 7.2 plus 2 mM KH2PO4, and different oxidizable substrates (as indicated in Results). For state 3 respiration, 600 nmol ADP were added. Mitochondria were incubated at 37°C with Aur and MA for 30–60 s before substrates were added. At the end of each respiratory measurement, dithionite was added to get the chemical zero oxygen signal.
# (§4) Isolated mitochondria (1mg protein/mL) were incubated in KME buffer (120 mM KCl, 20 mM MOPS, 1 mM EGTA) pH 7.20 plus 2 mM KH2PO4 and the indicated oxidizable substrates. For state 3 (ADP-stimulated) respiration, 300-600 nmol ADP were added. RC, respiratory control; n=3. To get the maximal reduction of molecular oxygen (zero oxygen concentration), sodium dithionite (Na2O4S2) was added at the end of each measurement.
# Rat Liver Mitochondria = experiment: Oxygen consumption of isolated mitochondria; type: biochemical; conditions: Rat Liver Mitochondria, 5 mM Glutamate/5 mM Malate
# Method: Rat liver (RLM) and heart (RHM) mitochondria were isolated as described previously by differential centrifugation.
# as §3, §4
structure (smiles),measurement,setting,value
"Cc1ccc(Cl)c(Nc2ccccc2C(=O)O)c1Cl [MA, Meclofenamic acid]",effect on proliferation after shorter exposure,"Cervix HeLa cells; HeLa cells, 12 h exposure",< 15%
same,IC50,"Cervix HeLa cells; Homo sapiens, Cervix HeLa, 24 h, read-out: IC50 for proliferation cell rate",6 ± 3 µM
same,TI ratio (3T3/ cancer cells),Cervix HeLa cells; IC50 3T3 / IC50 HeLa,17
same,TI ratio (H9C2/cancer cells),Cervix HeLa cells; IC50 H9C2 / IC50 HeLa,17
same,IC50,3T3 mouse fibroblasts,> 100 µM
same,IC50,[1],> 100 µM
same,Net State 3 oxygen consumption rate,[2]; 5 μM MA,26 ± 13
same,Pseudo State 4 oxygen consumption rate,[2]; 5 μM MA,19 ± 4 (3)
same,RC (State 3/ State 4),[2]; 5 μM MA,1 (3)
same,State 3 oxygen consumption rate,[2]; 5 μM MA,45 ± 10 (3)
same,State 4 oxygen consumption rate,[2]; 5 μM MA,45 ± 10 (3)
same,Net State 3 oxygen consumption rate,[2]; 10 μM MA,0
same,RC (State 3/ State 4),[2]; 10 μM MA,1 (3)
same,State 3 oxygen consumption rate,[2]; 10 μM MA,36 ± 7 (3)
same,State 4 oxygen consumption rate,[2]; 10 μM MA,36 ± 7 (3)
same,Pseudo State 4 oxygen consumption rate,"[2]; 10 μM MA, in nmol O2/min/mg protein",45 ± 15 (3)
same,Net State 3 oxygen consumption rate,Rat Liver Mitochondria; 10 μM MA,81 (1)
same,Pseudo State 4 oxygen consumption rate,Rat Liver Mitochondria; 10 μM MA,32.5 (1)
same,RC,Rat Liver Mitochondria; 10 μM MA,8.6 (1)
same,State 3 oxygen consumption rate,Rat Liver Mitochondria; 10 μM MA,113.5 (1)
same,State 4 oxygen consumption rate,Rat Liver Mitochondria; 10 μM MA,13.5 (1)
same,Net State 3 oxygen consumption rate,Rat Liver Mitochondria; 50 μM MA,61 ± 27
same,Pseudo State 4 oxygen consumption rate,Rat Liver Mitochondria; 50 μM MA,42 ± 15 (3)
same,RC,Rat Liver Mitochondria; 50 μM MA,2.1 ± 0.2 (3)
same,State 3 oxygen consumption rate,Rat Liver Mitochondria; 50 μM MA,102 ± 23 (3)
same,State 4 oxygen consumption rate,Rat Liver Mitochondria; 50 μM MA,50 ± 17 (3)
